How the values were obtained:
A549 cells [1] = test: fluorescent probe detection of HOCl-produced intracellular chloramines in A549 cells; assay type: cell-based, human
Experimental: In each experiment, A549 cells were incubated with 50 μM HOCl in RPMI culture medium for 20 min at 37° C. and washed with the medium to remove residual HOCl; the cells were then incubated for an additional 20 minutes at 37° C. with 50 μM SCN^− and washed again with the medium. FIG. 3D illustrates the structure of the rhodamine-hydroxymic acid-based probe utilized in FIGS. 3A-C.

A549 cells [2] = test: flow cytometry of percent live, necrotic and apoptotic A549 cells; assay type: cell-based, human
Experimental: A549 cells were untreated (A), treated with 50 μM HOCl (B), treated with 50 μM SCN^− followed by treatment with 50 μM HOCl, (C), or treated with 50 μM HOCl followed by treatment 30 minutes later with 50 μM SCN^− (D).
Using the same protocol that was used to investigate the reaction of intracellular chloramines with SCN^− (FIG. 3), flow cytometry was employed to investigate the percent of live, necrotic, and apoptotic cells (FIG. 4).

GSH reductase (GOR) = molecular target: T1, GSH reductase (GOR) (Homo sapiens, UniProt P00390); test: inhibition of GSH reductase (GOR) by HOCl and repair by SCN^− (GOR-catalyzed reduction of GSSG by NADPH, kinetic traces at 340 nm); assay type: biochemical
T1 sequence (P00390 45-522 limits assumed): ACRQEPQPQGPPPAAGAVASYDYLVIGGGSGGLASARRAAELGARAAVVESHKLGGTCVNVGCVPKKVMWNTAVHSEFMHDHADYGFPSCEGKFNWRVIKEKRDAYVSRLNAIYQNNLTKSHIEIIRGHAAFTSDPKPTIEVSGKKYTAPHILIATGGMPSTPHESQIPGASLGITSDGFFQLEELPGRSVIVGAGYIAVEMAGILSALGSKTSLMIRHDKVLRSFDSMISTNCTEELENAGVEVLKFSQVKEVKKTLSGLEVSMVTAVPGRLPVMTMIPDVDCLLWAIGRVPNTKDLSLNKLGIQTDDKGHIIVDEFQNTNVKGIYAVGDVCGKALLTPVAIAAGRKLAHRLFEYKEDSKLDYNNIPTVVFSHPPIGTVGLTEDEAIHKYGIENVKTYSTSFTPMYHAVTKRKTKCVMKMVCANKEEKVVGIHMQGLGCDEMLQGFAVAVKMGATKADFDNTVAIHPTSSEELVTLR
Experimental: FIG. 2 contains kinetic traces at 340 nm depicting the GOR-catalyzed reduction of GSSG by NADPH. Conditions: (Control) [GSSG]o=1 mM, [NADPH]o=0.1 mM, [GOR]=0.025 U/mL, [iP]=0.1 M, pH 7.4 and T=25° C.; (SCN^- treated) GOR incubated with 40 μM HOCl for 20 minutes and then treated with 160 μM SCN^- for another 20 minutes. (HOCl modified) GOR incubated with 40 μM HOCl for 20 minutes and then treated with iP for an additional 20 minutes. […] Glutathione (GSH) is a major non-protein thiol in cells (up to mM concentrations have been reported in some cells). One of the cellular functions of GSH is to serve as an antioxidant, and thus GSH is essential for cell survival, especially during conditions of oxidative stress. Many of the important residues in the active site of GOR, including two cysteines ([…]) and tyrosine ([…]), are susceptible to HOCl attack. Oxidation of these residues results in the inhibition of enzyme activity.

Structure (SMILES)	fluorescence with probe compound (1) (intracellular chloramines) (A549 cells [1]; A549 cells treated with 50 μM HOCl 20 min 37° C., then probe (FIG. 3B))	cell killing (A549 cells [2]; 50 μM HOCl (FIG. 4B))	apoptotic cells (A549 cells [2]; under the conditions of these experiments (50 μM HOCl with or without 50 μM SCN^−))	loss of enzyme activity (GSH reductase (GOR); GOR ~1.3 nM treated with 40 μM HOCl for 20 minutes, loss within 13 minutes, pH 7.4, 25° C.) [%]	fluorescence with probe compound (1) (intracellular chloramines) (A549 cells [1]; A549 cells treated with 50 μM HOCl and subsequently with 50 μM SCN^− 20 minutes (FIG. 3C))	fluorescence with probe compound (1) (intracellular chloramines) (A549 cells [1]; A549 cells treated with HOCl in the presence of SCN^− (data not shown))	recovery of HOCl-damaged cells (A549 cells [2]; 50 μM SCN^− added within 30 minutes after 50 μM HOCl (FIG. 4D))	protection of cells from HOCl (A549 cells [2]; 50 μM SCN^− present before 50 μM HOCl was added (FIG. 4C))	recovery of HOCl-damaged cells (A549 cells [2]; interval for addition of SCN^− after HOCl 1 hour or more (data not shown))	enzyme activity recovered (GSH reductase (GOR); HOCl-modified GOR (40 μM HOCl, 20 minutes) subsequently treated with 160 μM SCN^− for 20 minutes) [%]
OCl [HOCl, hypochlorous acid, reference compound]	fluoresced	kill roughly half of the cells	essentially no apoptotic cells were observed	~82	–	–	–	–	–	–
N#CS [SCN^−, thiocyanate]	–	–	–	–	do not fluoresce	did not fluoresce	the cells were resuscitated	efficient scavenger of HOCl	recovery was not observed	~89

From patent US20130189773A1, “PRODUCTION OF HYPOTHIOCYANITE FROM HALOGENATED CELLS” (priority 2012, published 2013)
